Test results as given in patent publication US11186552B2, “Tebuconazole polymorph and preparation method therefor” (East China University of Science and Technology, priority 2017, dated 2021).
≈ marks a conversion by molar mass, not a printed value.

Assays:
[1] = Solubility in ethanol by high performance liquid chromatography
Method: Excess crystal form 1 and crystal form 2 were weighed and suspended in ethanol, shaken for 12 h, and high performance liquid chromatography was used to test the solubility.

[2] = system: wheat white powder; test: Live spray protection of plants, prevention and control effect; format: in vivo
Excerpt: The water-dispersible granules preparations with 50% of crystal form 1 and crystal form 2 were formulated into solutions, respectively, and the plants were protected by live spray. Crystal form 2 has better prevention and control effect.

[3] = High humidity stability of crystal form (XRPD test); format: physicochemical; settings: 90±5% humidity, 5 days and 10 days
Method: (§1) XRD (X-ray powder diffraction) method: instrument model: Rigaku Ultima IV; target: Cu-Kα (40 kV, 40 mA); using a D/tex Ultra detector at room temperature. The scanning range is from 3° to 45 in the 2θ interval, and the scanning speed is 20°/minute.

[4] = Light stability of crystal form (XRPD test); format: physicochemical; settings: 4500±500 lux light intensity, 5 days and 10 days
Method: as §1

[5] = High temperature stability of crystal form (XRPD test); format: physicochemical; settings: oven at 60±2° C., 5 and 10 days
Method: as §1, with “20°/minute. […] After 5 and 10 days, the sample was taken out for XRPD test to investigate the crystalline stability of the sample to temperature.” for “20°/minute.”

## CC(C)(C)C(O)(CCc1ccc(Cl)cc1)Cn1cncn1 (racemic) [crystal form 1, (RS)-1-(4-chlorophenyl)-4,4-dimethyl-3-(1H-1,2,4-triazol-1-ylmethyl) pentan-3-ol]
[1]; organic solvent or mixture, thermodynamic from solid, Solubility, excess solid suspended in ethanol, shaken for 12 h, HPLC
  solubility at 12 h: 92.1 mg/mL (≈ 299 mM)

## CC(C)(C)C(O)(CCc1ccc(Cl)cc1)Cn1cncn1 (racemic) [96% tebuconazole TC, (RS)-1-(4-chlorophenyl)-4,4-dimethyl-3-(1H-1,2,4-triazol-1-ylmethyl) pentan-3-ol]
[2]; concentration 0.15625 mg/L
  prevention and control effect: 0%
[2]; concentration 0.625 mg/L
  prevention and control effect: 30%
[2]; concentration 2.5 mg/L
  prevention and control effect: 50%
[2]; concentration 10 mg/L
  prevention and control effect: 100%

## CC(C)(C)C(O)(CCc1ccc(Cl)cc1)Cn1cncn1 (racemic) [crystal form 2, (RS)-1-(4-chlorophenyl)-4,4-dimethyl-3-(1H-1,2,4-triazol-1-ylmethyl) pentan-3-ol]
[3]
  crystalline stability of the samples to humidity: stable
[4]
  crystal form stability of the sample to light: stable
[1]; ethanol, crystal form 2 versus crystal form 1
  solubility in ethanol relative to crystal form 1: about 1.7 times
[1]; excess solid suspended in ethanol, shaken for 12 h, HPLC
  Solubility: 156.2 mg/mL (≈ 507 mM)
[5]
  crystalline stability of the sample to temperature: stable
